Series [1] relates to Human Plasma. Description: Anticoagulation in human plasma, activated partial thromboplastin time (APTT). Conditions: concentration required to double the APTT. In kind it is biochemical. The procedure, abridged: (§1)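 Compounds were added to human plasma over a range of concentrations. PT used Thromboplastin-C reagent with saline; APTT used a 120-second Actin preincubation followed by 0.02M CaCl2, and TT used bovine thrombin. Clotting times were read on a CoAScreener, and the concentration doubling clotting time was estimated by linear extrapolation.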

Series [2] relates to Human Plasma. The experiment in a line: Anticoagulation in human plasma, prothrombin time (PT). In kind it is biochemical. Conditions: concentration required to double the PT. In short, it runs like this: as §1
Series [3] has as its system Human Plasma. The experiment in a line: Anticoagulation in human plasma, thrombin time (TT). In kind it is biochemical. Conditions: concentration required to double the thrombin time. In short, it runs like this:
as §1

For series [4], the target named is T1, tissue plasminogen activator (t-PA) (Homo sapiens, UniProt P00750).
T1 construct: purchased American Diagnostics, Greenwich, Conn
T1 sequence (P00750 36-562): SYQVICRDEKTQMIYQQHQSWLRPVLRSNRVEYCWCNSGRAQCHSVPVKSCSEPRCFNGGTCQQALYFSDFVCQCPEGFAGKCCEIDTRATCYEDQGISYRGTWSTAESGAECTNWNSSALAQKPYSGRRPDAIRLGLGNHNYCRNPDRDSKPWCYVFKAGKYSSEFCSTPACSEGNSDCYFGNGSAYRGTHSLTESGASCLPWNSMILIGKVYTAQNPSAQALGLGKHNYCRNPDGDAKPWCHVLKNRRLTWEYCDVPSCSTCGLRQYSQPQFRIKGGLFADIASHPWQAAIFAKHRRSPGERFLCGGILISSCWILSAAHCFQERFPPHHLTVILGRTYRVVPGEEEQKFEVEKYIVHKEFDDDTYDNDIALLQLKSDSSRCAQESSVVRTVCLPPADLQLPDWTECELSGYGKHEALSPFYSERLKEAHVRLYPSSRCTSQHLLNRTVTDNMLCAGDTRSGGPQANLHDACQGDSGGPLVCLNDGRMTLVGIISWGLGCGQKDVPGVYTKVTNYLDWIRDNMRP
The experiment in a line: Serine protease inhibition, t-PA (chromogenic substrate), Kass. It is filed as biochemical. As to conditions: substrate H-D-Ile-Pro-Arg-p-nitroanilide. The procedure, abridged: (§2)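 Enzyme mixed with test compound in 0.03M Tris, 0.15M NaCl, pH 7.4, then p-nitroanilide substrate added (Bz-Ile-Glu-Gly-Arg-pNA for factor Xa; Bz-Phe-Val-Arg-pNA for trypsin; H-D-Ile-Pro-Arg-pNA for t-PA; H-D-Val-Leu-Lys-pNA for plasmin); hydrolysis followed at 405 nm. Free enzyme from standard curves gave bound enzyme and free inhibitor; Kass (L/mol) averaged over several compound concentrations.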

Series [5] addresses T2, Bovine trypsin (Bos taurus, UniProt P00760).
T2 construct: Bovine trypsin is purchased from Worthington Biochemicals, Freehold, N.J; purchased Worthington Biochemicals, Freehold, N.J
T2 sequence (P00760 24-246): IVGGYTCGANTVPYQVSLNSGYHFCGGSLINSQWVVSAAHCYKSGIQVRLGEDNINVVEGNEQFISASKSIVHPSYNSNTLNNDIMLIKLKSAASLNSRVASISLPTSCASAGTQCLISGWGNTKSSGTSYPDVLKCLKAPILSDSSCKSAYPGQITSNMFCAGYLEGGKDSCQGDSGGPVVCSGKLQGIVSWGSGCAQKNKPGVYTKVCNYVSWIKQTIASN
Description: Serine protease inhibition, trypsin (chromogenic substrate), Kass. It is filed as biochemical. As to conditions: substrate N-Benzoyl-Phe-Val-Arg-p-nitroanilide. In short, it runs like this:
as §2

Series [6] concerns the target T3, factor Xa (Homo sapiens, UniProt P00742).
T3 construct: Human factors X, Xa, IXa, XIa, and xIIa are purchased from Enzyme Research Laboratories; purchased Enzyme Research Laboratories, South Bend, Ind
Description: Serine protease inhibition, factor Xa (chromogenic substrate), Kass. It is filed as biochemical. Conditions: substrate N-Benzoyl-Ile-Glu-Gly-Arg-p-nitroanilide. In short, it runs like this: as §2

For series [7] the following is noted: rat, in vivo.
Description: Male Sprague Dawley rats (350-425 gm, Harlan Sprague Dawley Inc., Indianapolis, Ind.) are anesthetized with xylazine (20 mg/kg, s.c.) and ketamine (120 mg/kg, s.c.) and maintained on a heated water blanket (37° C.). The jugular vein(s) is cannulated to allow for infusions.
Plasma thrombin time (TT) and activated partial thromboplastin time (APTT) are measured with a fibrometer. Blood is sampled from a jugular catheter and collected in syringe containing sodium citrate (3.8%, 1 part to 9 parts blood). To measure TT, rat plasma (0.1 ml) is mixed with saline (0.1 ml) and bovine thrombin (0.1 ml, 30 U/ml in TRIS buffer; Parke Davis) at 37° C. For APTT, plasma (0.1 ml) and APTT solution (0.1 ml, Organon Teknika are incubated for 5 minutes (37° C.) and CaCl2 (0.01 ml, 0,025M) is added to start coagulation. Assays are done in duplicate and averaged.
The time course of the effect of the thrombin inhibitor upon TT is determined after i.v bolus administration to anesthetized rats and after oral treatment of fasted conscious rats. Due to limitations of blood volume and the number of points required to determine the time course from time of treatment to the time when the response returns to pretreatment values, two populations of rats are used. Each sample population represents alternating sequential time points. The average TT over the time course is used to calculate area under the curve (AUC). The index of bioavailability is calculated by the formula shown below and is expressed as percent relative activity.
The area under the curve (AUC) of the plasma TT time course is determined and adjusted for the dose. This index of bioavailability is termed "% Relative Activity" and is calculated as [formula]
Compound solutions are prepared fresh daily in normal saline and are injected as a bolus or are infused starting 15 min before and continuing throughout the experimental perturbation which is 15 minutes in the arteriovenous shunt model and 60 minutes in the FeCl3 model of arterial injury and in the spontaneous thrombolysis model. Bolus injection volume is 1 ml/kg for i.v., and 5 ml/kg for p.o. and infusion volume is 3 ml/hr.
The target of series [8] is T4, Human plasmin (Homo sapiens, UniProt P00747).
T4 construct: Human plasmin is purchased from Boehringer Mannheim, Indianapolis, Ind; purchased Boehringer Mannheim, Indianapolis, Ind
T4 sequence (P00747 581-810 limits assumed): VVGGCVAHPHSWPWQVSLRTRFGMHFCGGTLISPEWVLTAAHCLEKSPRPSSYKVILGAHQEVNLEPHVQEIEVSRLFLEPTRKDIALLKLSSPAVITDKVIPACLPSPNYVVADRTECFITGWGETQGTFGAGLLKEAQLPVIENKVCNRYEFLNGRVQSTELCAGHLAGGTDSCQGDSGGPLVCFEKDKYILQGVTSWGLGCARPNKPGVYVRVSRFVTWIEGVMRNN
T4 sequence (P00747 97-580 partner limits assumed): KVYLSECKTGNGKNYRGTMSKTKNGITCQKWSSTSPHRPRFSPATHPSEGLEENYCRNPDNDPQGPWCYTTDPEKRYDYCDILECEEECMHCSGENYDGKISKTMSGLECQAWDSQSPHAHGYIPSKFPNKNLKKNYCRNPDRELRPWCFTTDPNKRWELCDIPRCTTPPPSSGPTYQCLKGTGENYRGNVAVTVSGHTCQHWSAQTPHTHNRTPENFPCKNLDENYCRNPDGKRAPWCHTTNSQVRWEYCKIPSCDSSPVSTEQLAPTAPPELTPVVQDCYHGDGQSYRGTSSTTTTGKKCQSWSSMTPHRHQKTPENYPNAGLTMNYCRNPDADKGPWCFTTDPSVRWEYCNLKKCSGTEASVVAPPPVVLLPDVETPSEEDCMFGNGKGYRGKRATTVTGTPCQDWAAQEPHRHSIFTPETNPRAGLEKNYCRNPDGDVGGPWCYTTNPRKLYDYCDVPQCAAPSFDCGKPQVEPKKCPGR
Description: Serine protease inhibition, plasmin (chromogenic substrate), Kass. It is filed as biochemical. As to conditions: substrate H-D-Val-Leu-Lys-p-nitroanilide. The procedure, abridged: as §2

Series [9] concerns the target T5, human thrombin (Homo sapiens, UniProt P00734).
T5 construct: purified human thrombin Enzyme Research Laboratories, South Bend, Ind; purchased Enzyme Research Laboratories, South Bend, Ind
The experiment in a line: Inhibition of amidase activity of thrombin (chromogenic substrate), Kass. As to conditions: substrate N-benzoyl-Phe-Val-Arg-p-nitroanilide, pH 7.4. In kind it is biochemical. In short, it runs like this: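 Human thrombin (8 NIH units/ml solution) with compound in 0.03M Tris, 0.15M NaCl, pH 7.4; chromogenic substrate hydrolysis followed at 405 nm. Free thrombin from standard curves gives bound enzyme and free inhibitor; Kass, an association equilibrium constant in L/mol, averaged over a compound concentration range.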

Non-standard residues stand in square brackets, D forms with d. Residues, ends and D or L forms follow the SMILES beside them. dNMeCha = CN[C@H](CC1CCCCC1)C(=O)O

T3 sequence (P00742 235-488 limits assumed): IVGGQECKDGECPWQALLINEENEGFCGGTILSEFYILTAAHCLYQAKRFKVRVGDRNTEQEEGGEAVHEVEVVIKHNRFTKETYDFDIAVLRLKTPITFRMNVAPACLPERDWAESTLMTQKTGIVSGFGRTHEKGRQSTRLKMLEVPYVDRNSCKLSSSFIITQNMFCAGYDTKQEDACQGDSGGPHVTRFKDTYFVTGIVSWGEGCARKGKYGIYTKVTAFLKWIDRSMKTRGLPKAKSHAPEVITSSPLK
T3 sequence (P00742 41-179 partner limits assumed): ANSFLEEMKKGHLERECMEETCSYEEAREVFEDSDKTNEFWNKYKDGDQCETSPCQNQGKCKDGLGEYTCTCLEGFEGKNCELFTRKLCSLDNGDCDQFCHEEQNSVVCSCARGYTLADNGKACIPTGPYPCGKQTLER

For `CCS(=O)(=O)N[C@H](CC1CCCCC1)C(=O)N1CCC[C@H]1C(=O)N[C@H](C=O)CCCNC(=N)N.Cl` [Example 21, EtSO2 -D-Cha-Pro-Arg-H.HCl], the “2 × Clotting time, APTT” value in series [1] worked out at 260 ng/mL. Further, the “2 × Clotting time, PT” value in series [2] worked out at 730 ng/mL. The “2 × Clotting time, TT” value in series [3] came to 25 ng/mL. For the same compound, in series [4], the “Enzyme Kass, t-Pa” value worked out at 0.73 L/mol × 10^6. The “Enzyme Kass, Trypsin” value in series [5] turned out to be 200 L/mol × 10^6. Further, the “Enzyme Kass, Xa” value in series [6] worked out at 20 L/mol × 10^6. The “Index of Bioavailability, % Relative Activity” value in series [7] turned out to be 19%. The “Enzyme Kass, Plasmin” value in [8] was found to be 45 L/mol × 10^6. The “Enzyme Kass, Human Thrombin” value in series [9] worked out at 550 L/mol × 10^6.

For `CN[C@H](CC1CCCCC1)C(=O)N1CCC[C@H]1C(=O)N[C@H](C=O)CCCNC(=N)N.Cl` [Example 31, Me-D-Cha-Pro-Arg-H.HCl] (H-[dNMeCha]-Pro-Arg-aldehyde), the “2 × Clotting time, APTT” value in [1] is 420 ng/mL. In addition, in series [2], the “2 × Clotting time, PT” value stood at 720 ng/mL. Moreover, in series [3], the “2 × Clotting time, TT” value stood at 18 ng/mL. The “Enzyme Kass, t-Pa” value in [4] turned out to be 0.037 L/mol × 10^6. Also, the “Enzyme Kass, Trypsin” value in series [5] is reported as 160 L/mol × 10^6. Besides, the “Enzyme Kass, Xa” value in series [6] was found to be 5.6 L/mol × 10^6. Besides, the “Index of Bioavailability, % Relative Activity” value in series [7] came to 13%. Besides, the “Enzyme Kass, Plasmin” value in series [8] is 7.7 L/mol × 10^6. In [9], the “Enzyme Kass, Human Thrombin” value is on record as 590 L/mol × 10^6.

(Values after US5602101A, “Antithrombotic agents” (priority 1994, dated 1997).)
